According to PMC8305768, “Design, Synthesis and Antiparasitic Evaluation of Click Phospholipids” (Molecules, 2021):
Structures can show the parent of a compound that is named as a salt. Where two headings read alike, the source gives them in different places.

Tests used:
CYP2C19 = molecular target: T1, CYP2C19 (Homo sapiens, UniProt P33261); assay: Cytochrome P450 inhibition assay (P450-Glo) CYP2C19; format: in vitro ADME; details: compounds 10 μM; miltefosine 10 μM or 1 μM
T1 construct: purchased Corning Inc; host or cells: baculovirus-infected insect cells
T1 sequence (P33261 whole entry): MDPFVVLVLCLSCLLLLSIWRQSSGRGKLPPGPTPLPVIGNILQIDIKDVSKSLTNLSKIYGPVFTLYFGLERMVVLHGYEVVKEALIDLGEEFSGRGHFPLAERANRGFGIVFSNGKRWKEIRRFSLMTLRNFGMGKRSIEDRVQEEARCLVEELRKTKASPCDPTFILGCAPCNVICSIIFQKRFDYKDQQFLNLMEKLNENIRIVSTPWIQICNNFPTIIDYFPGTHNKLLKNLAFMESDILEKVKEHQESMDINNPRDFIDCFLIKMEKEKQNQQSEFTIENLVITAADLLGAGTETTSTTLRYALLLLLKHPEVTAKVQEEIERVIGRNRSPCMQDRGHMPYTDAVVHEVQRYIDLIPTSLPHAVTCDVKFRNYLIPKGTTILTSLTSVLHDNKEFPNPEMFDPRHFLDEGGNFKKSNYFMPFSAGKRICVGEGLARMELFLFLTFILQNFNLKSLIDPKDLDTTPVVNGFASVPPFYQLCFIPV
Text: Cytochrome (CYP) P450 inhibition assay: These assays made use of microsomal preparations of CYP450 (1A2, 2C9, 2C19, 2D6 and 3A4) from baculovirus-infected insect cells (Corning Inc., Corning, NY, USA) and cytochrome c reductase (and cytochrome b5 for CYP450 3A4). For detection of CYP450 activity, the luminescence-based P450-Glo (Promega Corp., Madison, WI, USA) assay system was used that contained a luminogenic CYP450 substrate, lyophilized luciferin detection reagent and reconstitution buffer. The substrates were luciferin derivatives of CYP450-specific substrates that produce (4S)-4,5-dihydro-2-(6-hydroxybenzothiazolyl)-4-thiazolecarboxylic acid (D-luciferin) after cleavage by CYP450 (CYP450 3A4, luciferin-IPA; CYP450 2C19, luciferin-H EGE; CYP450 2C9, luciferin-H; CYP450 2D6, luciferin-ME EGE; CYP450 1A2, luciferin-1A2). CYP450 reactions were initiated by addition of the NADPH regeneration system to the enzyme–substrate mixture with the luciferin detection reagent stopping the reaction and the D-luciferin being converted to oxyluciferin under the production of light being proportional to the CYP450 activity. The CYP450 assays were performed using the Tecan Fluent liquid-handling automation platform (Tecan Group Ltd., Mannedorf, Switzerland) in the 384-well assay format. Compounds were added into an empty 384-well plate (100 nL/well in 1% v/v DMSO) using the Echo 550 Liquid Handler followed by the addition of 5 μL/well of the CYP450/substrate mixture and incubation for 30 min at 37 °C, after which the reaction was initiated by the addition of the 5 μL/well NADPH regeneration system. After a further 30-min incubation at 37 °C, the CYP450 reaction was stopped and the luciferase reaction was simultaneously initiated by addition of 10 μL/well of luciferin detection reagent, followed by an additional 30-min incubation at 37 °C. The luminescence signal was detected using an Infinite M1000 PRO plate reader (Tecan Group Ltd., Mannedorf, Switzerland). The NCs yielded 0% inhibition (1% v/v DMSO) and standard CYP450 specific inhibitors were used as positive controls, yielding 100% inhibition (CYP450 1A2, alpha-naphthoflavone; CYP450 2C9, sulfaphenazole; CYP450 2C19, troglitazone; CYP450 2D6, quinidine; CYP450 3A4, ketoconazole).
Data analysis: The screening data were obtained in triplicate and analysed using ActivityBase (IDBS, Guildford, UK), and outlier elimination in the control wells was performed using the 3-sigma method. Unless stated, dose–response experiments were performed in the 11-point format with the IC50 value, Hill slope, minimum signal and maximum signal for each dose–response curve obtained using a four-parameter logistic fit in the XE module of ActivityBase (IDBS).

[1] = system: L. infantum (MHOM/MA/67/ITMAP-263) intracellular amastigotes; assay: Activity against L. infantum MHOM/MA/67/ITMAP-263 intramacrophage amastigotes (luciferase, THP-1); format: cell-based, Leishmania infantum; details: for IC50 / inhibition at 10 µM / inhibition at 1 µM: Leishmania infantum; for IC50: THP-1, 72 h, read-out: L. infantum (MHOM/MA/67/ITMAP-263) Intracellular Amastigotes IC50 ± SD; for inhibition at 10 µM / inhibition at 1 µM: THP-1; for inhibition at 10 µM: read-out: Mean % Inhibition ± SD at 10μM; for inhibition at 1 µM: read-out: Mean % Inhibition ± SD at (1 μM) (converted)
Description: A cloned line of L. infantum (MOM/ MA671TMAP263) promastigotes were maintained in RPMI 1640 medium supplemented with 10% heat-inactivated foetal bovine serum (FBS), 2 mM L-glutamine, 20 mM HEPES and 1% Penn/Strep. Maintenance of promastigotes was done in T-25 flasks at 26 °C by subpassage at […] every 5−6 days. L. infantum axenic amastigotes expressing episomal luciferase were maintained in MAA/20 (axenic amastigote medium) at 37 °C under a 5% CO2 environment with subpassages every 5 days. LUC-positive parasites were selected by addition of geneticin sulphate (G418) to the culture at 60 μg/mL.
The efficacy of compounds against L. infantum intracellular amastigotes was determined according to the literature with slight modifications. Briefly, 1 × 10^6 THP-1 cell/mL were seeded in a 96 well flat bottom plate (100 µL/well) and differentiated into macrophages by addition of 20 ng/mL of phorbol-myristate 13-acetate (PMA, Sigma, Saint Louis, MI, USA) for 18 h, followed by replacement with fresh medium for 24 h. Then these cells were infected with luciferase-expressing L. infantum axenic amastigotes in a macrophage:amastigotes ratio of 1:10 for 4 h at 37 °C, 5% CO2. Non-internalized parasites were washed and compounds were added at different concentrations in a final volume of 100 µL. After 72 h of incubation, the media was substituted by 100 µL of PBS. Then of 25 µL of Glo-lysis buffer from the Steady-Glo Luciferase Assay System (Promega, Madison, WI, USA) was added mixed and incubated for 10 min with agitation at 100 rpm. Finally, 30 µL of the Steady-Glo reagent (Promega, Madison, WI, USA) was then added to the plate and was incubated for 15 min with agitation at 100 rpm and then the content of each well was transferred to white-bottom 96-well plates. Luminescence intensity was read using a Synergy 2 Multi-Mode Reader (Biotek, Winooski, VT, USA). The antileishmanial effect was evaluated by the determination of the IC50 value (concentration required to inhibit growth in 50%) and calculated by the non-linear regression analysis using GraphPad Prism version 8.1.1 for Windows (GraphPad Software, San Diego CA, USA).

[2] = Cytotoxicity against THP-1 macrophages (MTT); format: cell-based; details: human, PMA-differentiated THP-1 macrophages, read-out: Toxicity CC50 ± SD Or CC50 Interval Estimation
Description: The effect of compounds selected compounds on THP-1-derived macrophages was assessed by the colorimetric MTT assay (3-(4,5-dimethylthiazol-2-yl)-2,5-diphenyl tetrazolium bromide). Briefly, 1 × 10^5 THP-1 cells/mL were differentiated into macrophages by addition of 20 ng/mL of phorbol-myristate 13-acetate (PMA, Sigma, Saint Louis, MI, USA) for 18 h, followed by replacement with fresh medium for 24 h. Cells were incubated with 100 µL of compounds ranging from 100 to 1 µM after dilution in the RPMI complete medium containing a maximum amount of 1% DMSO. After incubation for 72 h, the medium was removed and 100 µL of 0.5 mg/mL MTT solution diluted in RPMI was added. Plates were incubated for an additional 4 h to allow viable cells to convert MTT into a purple formazan product. Solubilization of formazan crystals was achieved by the addition of 2-propanol and absorbance was read at 570 nm using a Synergy 2 Multi-Mode Reader (Biotek, Winooski, VT, USA). Cytotoxicity was evaluated by the determination of the CC50 value (drug concentration that reduced the percentage of viable cells in 50%) and calculated by non-linear regression analysis using GraphPad Prism version 8.1.1 for Windows (GraphPad Software, San Diego, CA, USA).

[3] = CC50 THP-1 / IC50 L. infantum MHOM/MA/67/ITMAP-263

| Compound | % inhibition ± SD at 10 μΜ CYP2C19 (CYP2C19) | Selectivity Index CC50/IC50 [1, 3] | IC50 [1] | inhibition at 10 µM ([1]; 10 μM, 72 h, N.A. = inactive) | CC50 at 72 h [2] | Mean % Inhibition ± SD at 10μM ([1]; 10 μM, 72 h, N.A. = inactive) | inhibition at 1 µM ([1]; 72 h) | Selectivity Index CC50/IC50 [1] |
| --- | --- | --- | --- | --- | --- | --- | --- | --- |
| CCCCCc1cn(CCCCCCCCCCCOP(=O)([O-])OCC[N+](C)(C)C)nn1 [Compound 25, 11-(4-pentyl-1H-1,2,3-triazol-1-yl)undecyl (2-(trimethylammonio)ethyl) phosphate inner salt] | –32.10% | >3 | 34.3 ± 19.4 µM | 32 ± 19% | > 100 µM | – | – | – |
| C[N+](C)(C)CCOP(=O)([O-])OCCCCCCCCCCCn1cc(CC2CCCC2)nn1 [Compound 28, 11-(4-(cyclopentylmethyl)-1H-1,2,3-triazol-1-yl)undecyl (2-(trimethylammo nio)ethyl) phosphate inner salt] | –32.71% | – | – | – | > 100 µM | inactive | – | – |
| C[N+](C)(C)CCOP(=O)([O-])OCCCCCCCCCCCn1cc(CC2CCCCC2)nn1 [Compound 29, 11-(4-(cyclohexylmethyl)-1H-1,2,3-triazol-1-yl)undecyl (2-(trimethylammonio)ethyl) phosphate inner salt] | –28.74% | – | – | 43 ± 1% | > 100 µM | – | – | – |
| C[N+](C)(C)CCOP(=O)([O-])OCCCCCn1cc(CCCCCCCCNC(=O)OCc2ccccc2)nn1 [Compound 31, 5-(4-(8-(((benzyloxy)carbonyl)amino)octyl)-1H-1,2,3-triazol-1-yl)pentyl (2-(trimethylammonio)ethyl) phosphate inner salt] | –2.38% | – | – | – | > 100 µM | – | – | – |
| C[N+](C)(C)CCOP(=O)([O-])OCCCCCCCCCCCn1cc(CCCCCCCCNC(=O)OCc2ccccc2)nn1 [Compound 32, 11-(4-(8-(((benzyloxy)carbonyl)amino)octyl)-1H-1,2,3-triazol-1-yl)undecyl (2-(trimethylammonio)ethyl) phosphate inner salt] | – | – | – | 5 ± 18% | > 100 µM | – | – | – |
| C[N+](C)(C)CCCOP(=O)([O-])OCCCCCCCCCCCn1cc(CC2CCCCC2)nn1 [Compound 33, 11-(4-(cyclohexylmethyl)-1H-1,2,3-triazol-1-yl)undecyl (3-(trimethylammonio)propyl) phosphate inner salt] | 4.22% | – | – | 12 ± 5% | > 10 µM | – | – | – |
| C[N+](C)(C)CCOP(=O)([O-])OCCCCCCCCCCCn1cc(CCCCCCCCC(=O)O)nn1 [Compound 34, 11-(4-(8-carboxyoctyl)-1H-1,2,3-triazol-1-yl)undecyl (2-(trimethylammonio)ethyl) phosphate inner salt] | 4.89% | – | – | 10 ± 9% | 50 to 100 µM | – | – | – |
| C[N+](C)(C)CCOP(=O)([O-])OCCCCCn1cc(CCCCCCCCN)nn1 [Compound 35, 5-(4-(8-aminooctyl)-1H-1,2,3-triazol-1-yl)pentyl (2-(trimethylammonio)ethyl) phosphate inner salt] | –3.09% | – | – | – | > 100 µM | – | – | – |
| CCCCCCCCCCc1cc(CCCCCCCCCCOP(=O)([O-])OCC[N+](C)(C)C)no1 [Compound 41, 10-(5-decylisoxazol-3-yl)decyl (2-(trimethylammonio)ethyl) phosphate inner salt] | 5.65% | – | – | 93.7 ± 10% | 12.5 to 25 µM | – | – | – |
| CCCCCCCCc1noc(CCCCCOP(=O)([O-])OCC[N+](C)(C)C)n1 [Compound 53, 5-(3-octyl-1,2,4-oxadiazol-5-yl)pentyl (2-(trimethylammonio)ethyl) phosphate inner salt] | –17.22% | – | – | 98.4 ± 1% | 12.5 to 25 µM | – | 34.6% | – |
| CCCCCCCCc1noc(CCCCCCCCCCOP(=O)([O-])OCC[N+](C)(C)C)n1 [Compound 54, 10-(3-octyl-1,2,4-oxadiazol-5-yl)decyl (2-(trimethylammonio)ethyl) phosphate inner salt] | 10.43% | 13.6 | 0.8 ± 0.18 µM | 100.4 ± 1% | > 10 µM | – | 67.1% | – |
| CCCCCCCc1nnc(CCCCCCCCCCOP(=O)([O-])OCC[N+](C)(C)C)o1 [Compound 65, 10-(5-heptyl-1,3,4-oxadiazol-2-yl)decyl (2-(trimethylammonio)ethyl) phosphate inner salt] | –1.75% | – | – | 92.9 ± 5% | 12.5 to 25 µM | – | 4.8% | – |
| CCCCCCCCCCCc1nnc(CCCCCCCCCCOP(=O)([O-])OCC[N+](C)(C)C)o1 [Compound 66, 2-(trimethylammonio)ethyl (10-(5-undecyl-1,3,4-oxadiazol-2-yl)decyl) phosphate inner salt] | 23.97% | – | – | 94.2 ± 3% | 25 to 50 µM | – | 3.3% | – |
| CCCCCCCCCCCCCCCCOP(=O)([O-])OCC[N+](C)(C)C [Miltefosine, hexadecylphosphocholine, reference compound] | 7.92% | – | 3.2 ± 1.4 µM | – | 15.9 ± 1.2 µM | – | – | 4.9 |
